Reference: US20190124928A1, “ENHANCED HERBICIDAL COMPOSITIONS OF TRANSITION METAL CHELATES” (W. Neudorff GMBH KG, priority 2016, published 2019)

Columns and labels:
[1] = tested on: perennial ryegrass; assay: Example 5 greenhouse white clover and turf test, grass damage; assay type: in vivo, Lolium perenne; conditions: sprayed twice at 100 ml/m^2, seven days after first spraying
Procedure: (§1) Unless otherwise specified, all of the iron solutions were made using the same molar concentration of iron ion as chelating agent. In the liquid formulations samples were prepared by diluting a metal chelate, iron HEDTA (Neu 1173H) or iron EDTA to the desired level of iron as specified using stirring. Neu 1173H contains the stabilizer sodium citrate at 1.5% prior to dilution. Dilutions of iron HEDTA to the level of 0.25% Fe incorporate 0.08% sodium citrate into the spray solutions. KCl was then diluted and added to the diluted metal chelate.
(§2) In the dry formulations, the iron chelate was simply blended with KCl and with other fertilizer ingredients. Samples were usually prepared within 48 hours of treatment. All of the outside tests were done on areas of grass and white clover that were at least 2 months old. For the greenhouse tests, white clover and dandelion were grown in a commercial greenhouse mix using supplemental lighting and heating. Each plant was grown in a 2¼ inch pot to a minimum diameter of 15-20 cm. Perennial ryegrass was grown in 2¼ inch pots in the same greenhouse conditions as above and they are at least 4 weeks old at the time of application. […]
(§3) All plant damage was visually assessed using a percentage rating scale from 0 (no injury) to 100% (death). […] Percentage control was calculated from the respective weed cover data (e.g. preferably using the Henderson & Tilton formula). […]

[2] = tested on: white clover; assay: Example 5 greenhouse white clover and turf test, white clover damage; assay type: in vivo, Trifolium repens; conditions: sprayed twice at 100 ml/m^2, seven days after first spraying
Procedure: as §1, §2, §3

[3] = tested on: dandelion; assay: Example 10 greenhouse dandelion and turf test with sodium sulfate, dandelion damage; assay type: in vivo, Taraxacum officinale; conditions: sprayed once at 200 ml/m^2, six days after first spraying
Procedure: as §1, §2, §3

[4] = tested on: perennial ryegrass; assay: Example 10 greenhouse dandelion and turf test with sodium sulfate, grass damage; assay type: in vivo, Lolium perenne; conditions: sprayed once at 200 ml/m^2, six days after first spraying
Procedure: as §1, §2, §3

Compound | Grass Damage (%) [1] [%] | White Clover Damage (%) [2] [%] | Dandelion damage (%) [3] [%] | Grass Damage (%) [4] [%]
[Cl-].[K+] [KCl 2%, potassium chloride] | 0 | 0 |  | 
O=S(=O)([O-])[O-].[Na+].[Na+] [Na2SO4 2%, sodium sulfate] |  |  | 0 | 4
